For one series, the system named is β1 -adrenergic receptor. Kind of series: Atrial contraction of isolated rat atrium (β1-adrenergic receptor stimulating activity). Particulars: isolated rat atrium (SD male), Magnus method. The method, then:
Thus, the compounds of the present invention have a markedly weaker β1 -adrenergic receptor stimulating effect in comparison with the aforementioned β2 -adrenergic receptor stimulating effect.
Action of Drugs on the Atrial Contraction of Isolated Rat Atrium
The atria of SD male rats (350 to 400 g in body weight) were isolated and the experiment was conducted according to the Magnus method. The preparations with a tension of 1 g were exposed to Krebs-Henseleit solution maintained at 37° C. and gassed with a mixture of 95% of oxygen and 5% of carbon dioxide. The atrial contraction was induced isometrically via a pressure transducer and recorded on a rectigram. After addition of the drug, its efficacy was evaluated as drug concentration which increases 20 beats per minute of heart rate (i.e., EC20 value).

The next series relates to ICR mice. Kind of series: Acute toxicity. The class given is in vivo. Conditions: female ICR mice, intravenous, 50 mg/kg in saline. The method, then: To 4 female ICR mice of 4 weeks age was administered intravenously 2-[(2S)-2-[[(2R)-2-hydroxy-2-(4-hydroxyphenyl)-ethyl]amino]-1,2,3,4-tetrahydronaphthalen-7-yloxy]-N,N-dimethylacetamide dissolved in saline at dose of 50 mg/kg. No death of animals was observed during 24 hours after the administration.

A further series concerns the target T1, β2 -adrenergic receptor (Rattus norvegicus, UniProt P10608).
T1 construct: longitudinal uterine muscle strips (about 15 mm in length and about 5 mm in width) free from the basal plate were prepared; from tissue; host or cells: longitudinal uterine muscle strips of pregnant SD rats (pregnancy day 21)
Kind of series: Spontaneous contractions of isolated pregnant rat myometrium (β2-adrenergic receptor stimulating activity). Particulars: isolated pregnant rat uterus (SD, pregnancy day 21), Magnus method; read-out: EC50 value (activity to relax 50% of the spontaneous contractions of rat myometrium). The method, then: Thus, the compounds of the present invention have a markedly potent β2 -adrenergic receptor stimulating effect and therefore are remarkably useful as β2 -adrenergic receptor stimulating agents.
Action of Drugs on the Spontaneous Contractions of Isolated Pregnant Rat Myometrium
The uteri of pregnant SD rats (pregnancy day 21) were isolated and longitudinal uterine muscle strips (about 15 mm in length and about 5 mm in width) free from the basal plate were prepared. The experiment was conducted according to the Magnus method. The preparations with a tension of 1 g were exposed to Locke-Ringer solution maintained at 37° C. and gassed with a mixture of 95% of oxygen and 5% of carbon dioxide. Spontaneous contractions of myometrium were induced isometrically via a pressure transducer and recorded on a rectigram. The drug efficacy was evaluated as 50% inhibitory drug concentration (i.e., EC50 value) by comparing the total degree of uterine contraction during 5 minutes before the addition of the drug with the total degree of uterine contraction during 5 minutes after the addition of the drug.

From patent US6046192A, “Phenylethanolaminotetralincarboxamide derivatives” (Kissei Pharmaceutical Co., Ltd., priority 1996, dated 2000) come the findings set out here.

As usually defined, the EC50 is the concentration that produces a half-maximal response.

T1 sequence (P10608 whole entry): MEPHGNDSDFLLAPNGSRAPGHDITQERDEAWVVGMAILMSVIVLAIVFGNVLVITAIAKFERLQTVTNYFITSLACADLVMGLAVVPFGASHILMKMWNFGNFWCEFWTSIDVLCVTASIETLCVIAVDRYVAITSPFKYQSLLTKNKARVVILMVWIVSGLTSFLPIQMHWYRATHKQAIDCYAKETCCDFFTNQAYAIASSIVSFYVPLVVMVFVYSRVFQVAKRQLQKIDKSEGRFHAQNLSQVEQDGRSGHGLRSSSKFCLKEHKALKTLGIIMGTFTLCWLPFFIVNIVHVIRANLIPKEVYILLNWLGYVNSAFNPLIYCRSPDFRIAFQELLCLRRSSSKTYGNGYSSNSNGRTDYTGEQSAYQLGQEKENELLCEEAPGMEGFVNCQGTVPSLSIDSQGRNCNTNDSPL

As to `CN(C)C(=O)COc1ccc2c(c1)C[C@@H](NC[C@H](O)c1ccc(O)cc1)CC2` [2-[(2S)-2-[[(2R)-2-Hydroxy-2-(4-hydroxyphenyl)ethyl]-amino]-1,2,3,4-tetrahydronaphthalen-7-yloxy]-N,N-dimethylacetamide], the “EC20 value (activity to increase rat heart rate 20 beats per minute)” value in the series on β1 -adrenergic receptor is 1.6×10^-6 molar concentration. Besides, in the series on ICR mice, the “death of animals during 24 hours after the administration” value is given as “No death”. Further, at β2 -adrenergic receptor, the EC50 came to 15 nM.
